Earlier results, collected in US20220331448A1, “COMPOSITIONS AND METHODS FOR TREATING SUCCINIC SEMIALDEHYDE DEHYDROGENASE DEFICIENCY (SSADHD)” (Washington State University, priority 2018, published 2022).

Columns and labels:
aldh5a1−/− mice = conditions: cited from earlier work
GABA-transaminase = biological target: T1, GABA-transaminase (Mus musculus, UniProt P61922); conditions: daily doses ˜10 mg/kg or osmotic minipumps; cited from earlier work
T1 construct: from tissue; host or cells: living mice (CNS), endogenous enzyme
T1 sequence (P61922 29-500): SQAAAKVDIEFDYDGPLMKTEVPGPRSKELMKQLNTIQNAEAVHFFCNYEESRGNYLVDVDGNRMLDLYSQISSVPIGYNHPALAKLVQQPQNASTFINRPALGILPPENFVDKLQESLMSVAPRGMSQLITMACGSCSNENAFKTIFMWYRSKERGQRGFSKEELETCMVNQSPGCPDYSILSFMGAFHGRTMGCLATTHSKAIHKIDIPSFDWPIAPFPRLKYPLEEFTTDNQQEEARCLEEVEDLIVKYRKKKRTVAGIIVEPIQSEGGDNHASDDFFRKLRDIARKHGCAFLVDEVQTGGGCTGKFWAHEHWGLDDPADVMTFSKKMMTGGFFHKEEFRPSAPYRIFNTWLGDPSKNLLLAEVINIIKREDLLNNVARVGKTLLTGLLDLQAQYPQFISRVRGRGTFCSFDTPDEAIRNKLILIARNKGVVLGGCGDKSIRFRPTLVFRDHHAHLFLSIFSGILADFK

C=CC(N)CCC(=O)O (centres unmarked) [vigabatrin]
rescue from premature lethality / lifespan extension (aldh5a1−/− mice): rescue
GABA in the CNS (GABA-transaminase): significantly elevated
